Data published in patent publication US20240148821A1, “PHARMACEUTICAL USE OF CYCLIC PEPTIDE COMPOUND” (CHUGAI SEIYAKU KABUSHIKI KAISHA, priority 2021, published 2024).
Numbered stars: 1 amine (or outer) side, 2 acyl side, 3 side chain; on linkers, the order of the positions; unused ones are H or OH. Bridge positions count the residues as written; N and C are the ends. Square brackets hold non-standard residues; d marks the D form. Peptide text beside a SMILES is read from it. * marks the point of attachment. hPhe(3,5-F2-4-CF3) = N[C@@H](CCc1cc(F)c(C(F)(F)F)c(F)c1)C(=O)O; hPhe(3-Cl-4-CF3) = N[C@@H](CCc1ccc(C(F)(F)F)c(Cl)c1)C(=O)O; hPhe(3-F,4-CF3) = N[C@@H](CCc1ccc(C(F)(F)F)c(F)c1)C(=O)O; NMePhe(4-CF3) = CN[C@@H](Cc1ccc(C(F)(F)F)cc1)C(=O)O; NMePhe(4-Cl) = CN[C@@H](Cc1ccc(Cl)cc1)C(=O)O; X5 = CCN([C@@H](CC1CCCCC1)C(=O)[*:2])[*:1]; hPhe(4-Cl) = N[C@@H](CCc1ccc(Cl)cc1)C(=O)O; NMedβ3hAla = C[C@H](CC(=O)[*:2])N(C)[*:1]; NMeAla(cPent) = CN[C@@H](CC1CCCC1)C(=O)O; Pro(4,4-F2) = O=C(O)[C@@H]1CC(F)(F)CN1; NMe4Pal = CN[C@@H](Cc1ccncc1)C(=O)O; NMeCha = CN[C@@H](CC1CCCCC1)C(=O)O; NMeChg = CN[C@H](C(=O)O)C1CCCCC1; N(CH2CH2)2CF2 = FC1(F)CCN(*)CC1; NMeD = CN[C@@H](CC(=O)O)C(=O)O; NMeL = CN[C@@H](CC(C)C)C(=O)O; NMeAc5c = CNC1(C(=O)O)CCCC1; NMeV = CN[C@H](C(=O)O)C(C)C; d(β3hA) = C[C@@H](N)CC(=O)O; NMeA = CN[C@@H](C)C(=O)O; Piperidide = C1CCN(*)CC1; Ac5c = NC1(C(=O)O)CCCC1; Aze = O=C(O)[C@@H]1CCN1; Ac4c = NC1(C(=O)O)CCC1; Aib = CC(C)(N)C(=O)O; Sar = CNCC(=O)O

Molecular target: protein-protein interaction between Kras and SOS1 (biotin-tagged human Kras loaded with GDP, His-tagged human SOS1) (Homo sapiens (Human), UniProt P01116, G12D)
Experiment: Protein-protein interaction inhibition between Kras and SOS1 (KrasG12D-SOS PPI) using AlphaScreen;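 note: kras produced in E. coli, Ni-coupled donor beads and streptavidin acceptor beads, excitation 680 nm with emission detected at 520–620 nm via singlet oxygen transfer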
Format: biochemical
Conditions: AlphaScreen; biotin-tagged human Kras loaded with GDP, His-tagged human SOS1; read-out: KRAS G12D-SOS PPI IC50

Compared with CC[C@H](C)[C@@H]1NC(=O)[C@H](CC(C)C)N(C)C(=O)C[C@@H](C)N(C)C(=O)[C@H](CC(C)C)NC(=O)C2(CCCC2)N(C)C(=O)[C@H](CC(C)C)NC(=O)[C@H](CCc2ccc(C(F)(F)F)c(F)c2)NC(=O)CN(C)C(=O)[C@H](CC2CCCCC2)N(C)C(=O)CN(C)C(=O)CN(C)C1=O [Compound 2] (cyclo(I[Sar][Sar][NMeCha][Sar][hPhe(3-F,4-CF3)]L[NMeAc5c]L[NMedβ3hAla][NMeL])), CC[C@H](C)[C@@H]1NC(=O)[C@H](CC(C)C)N(C)C(=O)C[C@@H](C(=O)N2CCCCC2)NC(=O)[C@H](C(C)C)N(C)C(=O)C2(CCCC2)NC(=O)[C@H](CC(=O)N2CCC(F)(F)CC2)N(C)C(=O)[C@H](CCc2ccc(C(F)(F)F)c(Cl)c2)NC(=O)CN(C)C(=O)[C@H](CC2CCCCC2)N(C)C(=O)CN(C)C(=O)CN(C)C1=O [Compound 3] ([NMeL]I[Sar][Sar][NMeCha][Sar][hPhe(3-Cl-4-CF3)][NMeD](N(CH2CH2)2CF2)[Ac5c][NMeV]D-Piperidide; lactam N-11) is 21-fold higher in IC50: 15 nM for the first, 310 nM for the second. The first is the more potent here.

First: CC[C@H](C)[C@@H]1NC(=O)[C@H](CC2CCCC2)N(C)C(=O)C[C@@H](C)NC(=O)[C@H](C(C)C)N(C)C(=O)C2(CCCC2)NC(=O)[C@@H]2CCCN2C(=O)[C@H](CCc2ccc(C(F)(F)F)c(Cl)c2)NC(=O)CN(C)C(=O)[C@H](CC2CCCCC2)N(C)C(=O)[C@@H]2CCN2C(=O)[C@H](C)N(C)C1=O [Compound 8] (cyclo([Ac5c][NMeV][d(β3hA)][NMeAla(cPent)]I[NMeA][Aze][NMeCha][Sar][hPhe(3-Cl-4-CF3)]P))
Second: CC[C@H](C)[C@@H]1NC(=O)[C@H](CC2CCCC2)N(C)C(=O)C[C@@H](C(=O)N2CCCCC2)N(C)C(=O)[C@H](C(C)C)N(C)C(=O)C2(CCCC2)NC(=O)[C@@H]2CCCN2C(=O)[C@H](CCc2ccc(C(F)(F)F)c(Cl)c2)NC(=O)CN(C)C(=O)[C@H](CC2CCCCC2)N(C)C(=O)[C@@H]2CCN2C(=O)[C@H](C)N(C)C1=O [Compound 37] ([NMeAla(cPent)]I[NMeA][Aze][NMeCha][Sar][hPhe(3-Cl-4-CF3)]P[Ac5c][NMeV][NMeD]-Piperidide; lactam N-11)
The IC50 of the first is 4.4-fold higher: 75 nM for the first, 17 nM for the second.

Compared with CC[C@H](C)[C@@H]1NC(=O)[C@H](C)N(C)C(=O)C[C@@H](C)NC(=O)[C@H](CC(C)C)N(C)C(=O)C(C)(C)NC(=O)[C@H](CC(C)C)N(C)C(=O)[C@H](CCc2ccc(Cl)cc2)NC(=O)CN(C)C(=O)[C@H](Cc2ccc(Cl)cc2)N(C)C(=O)CN(C)C(=O)CN(C)C1=O [Compound 19] (cyclo([Aib][NMeL][d(β3hA)][NMeA]I[Sar][Sar][NMePhe(4-Cl)][Sar][hPhe(4-Cl)][NMeL])), CC[C@H](C)[C@@H]1NC(=O)[C@H](CC(C)C)N(C)C(=O)C[C@@H](C(=O)N2CCCCC2)N(C)C(=O)[C@H](C2CCCCC2)N(C)C(=O)C2(CCCC2)NC(=O)[C@H](Cc2ccncc2)N(C)C(=O)[C@H](CCc2ccc(C(F)(F)F)c(Cl)c2)NC(=O)CN(C)C(=O)[C@H](CC2CCCCC2)N(C)C(=O)CN(C)C(=O)CN(C)C1=O [Compound 36] ([NMeL]I[Sar][Sar][NMeCha][Sar][hPhe(3-Cl-4-CF3)][NMe4Pal][Ac5c][NMeChg][NMeD]-Piperidide; lactam N-11) is 11-fold lower in IC50: 50 nM for the first, 4.7 nM for the second. The second is the more potent here.

Compared with CC[C@H](C)[C@@H]1NC(=O)[C@H](CC(C)C)N(C)C(=O)C[C@@H](C(=O)N2CCCCC2)N(C)C(=O)[C@H](C(C)C)N(C)C(=O)C2(CCCC2)NC(=O)[C@@H]2CCCN2C(=O)[C@H](CCc2ccc(C(F)(F)F)c(Cl)c2)NC(=O)CN(C)C(=O)[C@H](CC2CCCCC2)N(CC)C(=O)[C@@H]2CCN2C(=O)[C@H](C)N(C)C1=O [Compound 23] ([NMeL]I[NMeA][Aze][X5][Sar][hPhe(3-Cl-4-CF3)]P[Ac5c][NMeV][NMeD]-Piperidide; lactam N-11), CC[C@H](C)[C@@H]1NC(=O)[C@H](CC(C)C)N(C)C(=O)C[C@@H](C)N(C)C(=O)[C@H](C2CCCCC2)N(C)C(=O)C2(CCCC2)NC(=O)[C@@H]2CCCN2C(=O)[C@H](CCc2cc(F)c(C(F)(F)F)c(F)c2)NC(=O)CN(C)C(=O)[C@H](Cc2ccc(C(F)(F)F)cc2)N(C)C(=O)[C@@H]2CCN2C(=O)[C@H](C)N(C)C1=O [Compound 39] (cyclo([Ac5c][NMeChg][NMedβ3hAla][NMeL]I[NMeA][Aze][NMePhe(4-CF3)][Sar][hPhe(3,5-F2-4-CF3)]P)) is 4.1-fold higher in IC50: 2.7 nM for the first, 11 nM for the second. The first is the more potent here.

CC[C@H](C)[C@@H]1NC(=O)[C@H](CC(C)C)N(C)C(=O)C[C@@H](C)N(C)C(=O)[C@H](C2CCCCC2)N(C)C(=O)C2(CCC2)NC(=O)[C@@H]2CC(F)(F)CN2C(=O)[C@H](CCc2cc(F)c(C(F)(F)F)c(F)c2)NC(=O)CN(C)C(=O)[C@H](Cc2ccc(C(F)(F)F)cc2)N(C)C(=O)[C@@H]2CCN2C(=O)[C@H](C)N(C)C1=O [Compound 34] (cyclo([Ac4c][NMeChg][NMedβ3hAla][NMeL]I[NMeA][Aze][NMePhe(4-CF3)][Sar][hPhe(3,5-F2-4-CF3)][Pro(4,4-F2)])) showed an IC50 of 74 nM.
